Here are results for 9 molecules from ChEMBL document CHEMBL1201862, “PubChem BioAssay data set” (2004).

The source made the active and inactive calls.

One assay addresses Cytochrome P450 2D6 (Homo sapiens, UniProt P10635). The assay is described as follows: qHTS Assay for Inhibitors and Substrates of Cytochrome P450 2D6. [Related pubchem assays: 410 ]. The assay is classed as ADME. To be noted: read-out: Potency.
The target of assay [1] is 5-hydroxytryptamine receptor 1A (Homo sapiens, UniProt P08908). The assay is classed as functional.
A short description of assay [2]: NIH-3T3 fibroblast cytotoxicity, dose response, cytotoxicity control, cell-based, fluorescence, Alamar Blue, secondary assay (AID 2327).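 Also: NIH-3T3 mouse fibroblasts cultured with fluconazole at 8 µg/mL.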 The assay is classed as functional. (Resazurin is reduced to fluorescent resorufin, in cell work by metabolically active cells.)
Assay [3] is described as follows: inhibitors of firefly luciferase expression or activity, dose response, H4 neuroglioma cells, luminescence (AID 1990). The assay is classed as functional, cell-based.
Assay [4] addresses Sphingosine 1-phosphate receptor 2 (Homo sapiens, UniProt O95136). In words: Dose Response Cell Based Assay for Antagonists of the S1P2 Receptor. [Related pubchem assays: 856, 736 ]. The assay is classed as functional.
A short description of assay [5]: Luminescence Cell-Based Dose Response HTS to Identify Inhibitors of 5'UTR Stem-Loop Driven Prion Protein mRNA Translation in H4 Neuroglioblastoma Cells. [Related pubchem assays: 1827 (Project Summary), 1813 (Primary HTS)]. The assay is classed as functional.
Assay [6] can be described thus: inhibitors of SNCA 5'UTR-driven reporter translation, confirmation, H4 neuroglioma cells, luminescence (AID 1988). The assay is classed as functional, cell-based.
A short description of assay [7]: C. albicans growth with fluconazole, confirmation, fluorescence, retest (AID 2467). The assay is classed as functional, cell-based.
Assay [8] in a line: Luminescence-based dose response cell-based high throughput screening assay for cytotoxic compounds using the IEC-6 intestinal epithelial cell line. [Related pubchem assays: 1858 (Summary AID.), 1825 (Counterscreen.), 1907 (Confirmation screen.)]. The assay is classed as functional.
Assay [9] is described as follows: cytotoxicity in HEK-293T cells, dose response, cytotoxicity control for TCR NF-kB inhibitor project, luminescence, T-cell screen hits (AID 489026).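 Also: cells exposed to compound about 14 hours before the viability readout.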 The assay is classed as functional, cell-based.
The target of another assay is Cytochrome P450 2C19 (Homo sapiens, UniProt P33261). The assay is described as follows: Cytochrome panel assay with activity outcomes. Panel member name: p450-cyp2c19 Compounds with AC50 equal or less than 10 uM are considered active. To be noted: read-out: AC50. The assay is classed as functional.
For the next assay, the system named is INS1. The assay is described as follows: beta cell apoptosis inhibitors, cytokine rescue, dose response, luminescence, retest (AID 449756).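 Also: cell death triggered by IL-1 beta plus TNF-alpha plus IFN-gamma mixture; protective hits raise ATP signal compared with cytokine alone wells.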 The assay is classed as functional, cell-based. To be noted: Rattus norvegicus.
A short description of assay [10]: Shn3 3'UTR reporter inhibitors, dose response, cell-based, Clone20 osteoblasts, firefly luciferase, cherry-picked (AID 624132).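 Also: firefly luciferase luminescence from reporter carrying the Shn3 3'UTR in osteoblasts.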 The assay is classed as functional.
The nature of assay [11]: HepG2 cell cytotoxicity, dose response, cytotoxicity control for Shn3 inhibitor project, CellTiter-Glo, cherry-picked (AID 624134). The assay is classed as functional, cell-based. (In general: In ATP-based viability assays light output follows the ATP content of the culture.)
Assay [12] is described as follows: control 3'UTR Renilla luciferase suppression, dose response, counter-screen for Shn3 inhibitor project, cell-based, Clone20-Shn3RL, cherry-picked (AID 624133). The assay is classed as functional. (Counterscreens check selectivity or assay interference.)
A further assay concerns the target T1, Cytochrome P450 1A2 (Homo sapiens, UniProt P05177).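 Also: PubChem cytochrome P450 panel assay, CYP1A2 panel member.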
T1 sequence (P05177 whole entry): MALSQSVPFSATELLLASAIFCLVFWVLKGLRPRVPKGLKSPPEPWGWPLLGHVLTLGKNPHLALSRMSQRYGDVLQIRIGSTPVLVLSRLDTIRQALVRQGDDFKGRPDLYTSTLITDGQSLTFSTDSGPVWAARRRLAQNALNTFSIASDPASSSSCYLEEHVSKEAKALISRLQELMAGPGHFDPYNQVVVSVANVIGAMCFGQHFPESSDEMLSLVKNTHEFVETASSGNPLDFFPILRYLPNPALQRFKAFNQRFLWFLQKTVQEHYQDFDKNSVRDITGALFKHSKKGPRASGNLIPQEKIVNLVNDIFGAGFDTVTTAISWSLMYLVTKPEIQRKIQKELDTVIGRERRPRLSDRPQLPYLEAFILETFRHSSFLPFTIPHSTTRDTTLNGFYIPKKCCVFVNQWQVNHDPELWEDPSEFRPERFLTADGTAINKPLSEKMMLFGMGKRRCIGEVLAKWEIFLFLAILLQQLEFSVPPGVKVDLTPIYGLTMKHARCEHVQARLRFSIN

Another assay addresses Cytochrome P450 3A4 (Homo sapiens, UniProt P08684).
A short description of assay [13]: A cytotoxicity screen of small molecule inhibitors of the PhoP region in Salmonella typhi identified in the primary screen. [Related pubchem assays: 1850, 1864, 1985 ]. The assay is classed as functional.
In assay [14] the target is T2, Tyrosine-protein phosphatase non-receptor type 7 (Homo sapiens, UniProt P35236).
T2 sequence (P35236 whole entry): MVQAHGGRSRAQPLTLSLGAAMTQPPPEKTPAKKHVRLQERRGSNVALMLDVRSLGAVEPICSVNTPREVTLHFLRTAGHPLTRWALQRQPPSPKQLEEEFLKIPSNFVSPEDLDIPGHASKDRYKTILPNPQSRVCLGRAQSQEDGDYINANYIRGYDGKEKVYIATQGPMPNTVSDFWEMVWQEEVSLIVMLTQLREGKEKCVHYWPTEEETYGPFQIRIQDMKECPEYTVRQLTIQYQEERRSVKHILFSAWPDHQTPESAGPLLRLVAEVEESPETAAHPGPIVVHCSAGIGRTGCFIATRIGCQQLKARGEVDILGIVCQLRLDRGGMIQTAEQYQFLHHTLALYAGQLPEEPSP
In words: inhibitors of human HePTP phosphatase, […], biochemical, absorbance, leukemia target (AID 521). The assay is classed as functional.

Assay [15] deals with Eukaryotic translation initiation factor 4E (Mus musculus, UniProt P63073). The assay is described as follows: eIF4E–eIF4G protein interaction inhibitors, dose response, biochemical, TR-FRET (AID 855).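 Also: potency for disrupting eIF4E binding to eIF4GI seen as loss of FRET.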 The assay is classed as functional.
A short description of assay [16]: Luminescence-based counterscreen assay for KLF5 inhibitors: dose response cell-based high throughput screening assay to identify cytotoxic compounds using the IEC-6 intestinal epithelial cell line. [Related pubchem assays: 1700 (Primary screen.), 1834 (Confirmation screen.), 1858 (Summary AID.), 1905 (Counterscreen.)]. The assay is classed as functional.
A further assay addresses Troponin, cardiac muscle (Homo sapiens, UniProt P19429+P45379+P63316). In words: Fluorescence-based biochemical high throughput dose response assay for activators of the calcium sensitivity of cardiac Regulated Thin Filaments (RTF). [Related pubchem assays (depositor defined):AID493008, AID493018, AID504382, AID504383]. The assay is classed as protein-complex assay.
Assay [17] is described as follows: inhibitors of intracellular T. cruzi replication, confirmation, NIH3T3 host cells, beta-gal luminescence (AID 2044).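 Also: intracellular parasites grown in NIH/3T3 mouse fibroblasts as host cells; luminescent beta-galactosidase reporter signal from transgenic T. cruzi replicating inside host cells; inhibitors lower the luminescence signal.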 The assay is classed as functional, cell-based.
Assay [18] is described as follows: cytotoxicity toward NIH3T3 fibroblasts, dose response, counter-screen, cell-based, ATP luminescence, mouse fibroblasts (AID 2010).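 Also: cells exposed to compound for about 90 hours before reading.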 The assay is classed as functional.

Sequence of 5-hydroxytryptamine receptor 1A (P08908 whole entry): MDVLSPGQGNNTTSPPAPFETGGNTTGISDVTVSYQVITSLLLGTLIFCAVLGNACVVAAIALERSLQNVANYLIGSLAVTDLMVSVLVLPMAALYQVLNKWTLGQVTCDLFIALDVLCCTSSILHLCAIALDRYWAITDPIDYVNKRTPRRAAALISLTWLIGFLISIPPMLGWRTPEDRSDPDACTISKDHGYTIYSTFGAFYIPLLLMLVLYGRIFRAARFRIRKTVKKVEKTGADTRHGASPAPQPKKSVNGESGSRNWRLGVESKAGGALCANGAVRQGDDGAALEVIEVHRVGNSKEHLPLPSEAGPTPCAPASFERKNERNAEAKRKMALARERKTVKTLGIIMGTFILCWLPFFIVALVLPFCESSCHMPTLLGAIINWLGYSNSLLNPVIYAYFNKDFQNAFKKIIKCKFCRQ
Sequence of Sphingosine 1-phosphate receptor 2 (O95136 whole entry): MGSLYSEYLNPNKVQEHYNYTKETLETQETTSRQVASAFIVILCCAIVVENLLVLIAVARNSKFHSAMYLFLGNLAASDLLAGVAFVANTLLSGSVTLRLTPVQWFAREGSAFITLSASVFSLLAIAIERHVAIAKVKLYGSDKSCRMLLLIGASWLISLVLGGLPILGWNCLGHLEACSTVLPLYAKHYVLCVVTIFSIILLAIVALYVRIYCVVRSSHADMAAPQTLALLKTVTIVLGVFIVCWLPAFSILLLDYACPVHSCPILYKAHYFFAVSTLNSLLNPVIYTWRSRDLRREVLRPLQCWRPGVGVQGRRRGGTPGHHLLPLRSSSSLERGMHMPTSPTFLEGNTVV
Sequence of Cytochrome P450 2C19 (P33261 whole entry): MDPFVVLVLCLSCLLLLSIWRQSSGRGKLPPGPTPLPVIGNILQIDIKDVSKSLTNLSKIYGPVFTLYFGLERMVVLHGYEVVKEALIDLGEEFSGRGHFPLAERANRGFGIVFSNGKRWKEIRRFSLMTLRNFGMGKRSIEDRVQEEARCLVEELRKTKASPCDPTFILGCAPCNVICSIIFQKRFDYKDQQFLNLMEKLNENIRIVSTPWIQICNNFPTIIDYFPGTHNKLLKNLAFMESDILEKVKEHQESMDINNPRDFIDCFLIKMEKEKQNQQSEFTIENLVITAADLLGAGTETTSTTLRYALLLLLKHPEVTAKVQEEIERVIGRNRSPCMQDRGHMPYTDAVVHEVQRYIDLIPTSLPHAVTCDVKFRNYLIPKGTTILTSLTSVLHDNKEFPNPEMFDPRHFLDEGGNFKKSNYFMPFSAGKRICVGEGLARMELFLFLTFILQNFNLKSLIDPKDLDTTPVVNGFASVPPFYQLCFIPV
Sequence of Cytochrome P450 2D6 (P10635 whole entry): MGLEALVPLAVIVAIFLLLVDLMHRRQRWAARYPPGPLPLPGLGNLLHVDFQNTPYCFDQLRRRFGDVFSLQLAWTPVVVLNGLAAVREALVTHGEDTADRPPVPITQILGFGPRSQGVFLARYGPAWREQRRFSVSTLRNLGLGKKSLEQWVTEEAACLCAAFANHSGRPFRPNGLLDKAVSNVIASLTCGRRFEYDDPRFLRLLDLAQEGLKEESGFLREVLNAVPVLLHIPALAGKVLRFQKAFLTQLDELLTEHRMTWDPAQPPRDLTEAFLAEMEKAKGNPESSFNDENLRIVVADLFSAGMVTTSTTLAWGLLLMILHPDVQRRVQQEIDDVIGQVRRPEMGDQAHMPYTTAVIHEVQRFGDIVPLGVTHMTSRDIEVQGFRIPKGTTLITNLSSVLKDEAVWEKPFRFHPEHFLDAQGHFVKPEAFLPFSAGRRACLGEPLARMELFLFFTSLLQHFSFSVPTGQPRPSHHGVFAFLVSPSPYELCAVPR
Sequence of Eukaryotic translation initiation factor 4E (P63073 whole entry): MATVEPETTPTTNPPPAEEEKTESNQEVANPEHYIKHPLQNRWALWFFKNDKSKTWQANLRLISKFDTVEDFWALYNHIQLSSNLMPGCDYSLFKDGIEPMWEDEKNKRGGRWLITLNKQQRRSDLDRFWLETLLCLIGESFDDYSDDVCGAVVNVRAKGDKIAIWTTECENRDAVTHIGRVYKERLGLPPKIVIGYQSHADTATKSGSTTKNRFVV
Sequence of Cytochrome P450 3A4 (P08684 whole entry): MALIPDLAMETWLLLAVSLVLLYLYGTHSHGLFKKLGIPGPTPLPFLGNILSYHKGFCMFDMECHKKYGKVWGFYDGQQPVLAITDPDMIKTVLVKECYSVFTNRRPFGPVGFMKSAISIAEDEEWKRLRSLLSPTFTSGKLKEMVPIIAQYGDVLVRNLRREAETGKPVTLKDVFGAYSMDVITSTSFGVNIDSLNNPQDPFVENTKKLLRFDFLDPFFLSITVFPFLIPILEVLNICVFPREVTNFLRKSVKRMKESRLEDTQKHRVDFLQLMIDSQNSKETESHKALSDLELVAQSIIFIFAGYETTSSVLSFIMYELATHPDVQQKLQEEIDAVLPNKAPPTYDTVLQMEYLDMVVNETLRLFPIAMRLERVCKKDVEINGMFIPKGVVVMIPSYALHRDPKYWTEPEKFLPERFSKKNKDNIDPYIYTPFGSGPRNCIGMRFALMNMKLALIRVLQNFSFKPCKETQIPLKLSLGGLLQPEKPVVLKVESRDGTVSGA

Take `CC12C=C(/C=C/C=C/c3ccccc3)C(C)(C1)C(/C=C/c1ccccc1)CC2=O` (centres undefined): the AC50 at Cytochrome P450 2D6 is 3.16 µM (inconclusive).

As a reminder, the EC50 is the concentration at which the effect is half-maximal. As to `CC1CN(c2nnnn2-c2ccccc2)CC(C)O1` (centres undefined), the concentration giving a half-maximal response (EC50) in assay [1] is on record as > 50 µM (not active).

One may read the IC50 as the concentration that gives 50% inhibition. Regarding `Cn1c2c(c(=O)n(C)c1=O)C(C(F)(F)F)(C(F)(F)F)NC(c1ccc(Cl)cc1)=N2`, the EC50 in assay [2] was 2.61 µM (active); in assay [3], 0.383 µM (active); in assay [5], 3.25 µM (active); in assay [6] it was 2.83 µM (active); in assay [7], 0.628 µM (active). For the same molecule, the IC50 is 3.79 µM (active) in [4], 2.72 µM (active) in assay [8] and > 80 µM (inactive) in [9]. For the same molecule, the AC50 on Cytochrome P450 2C19 is 2.82 µM (inconclusive); with INS1, 0.983 µM (active); in assay [10], 1.47 µM (active); in assay [11] it was 0.756 µM (active); in assay [12], 2.03 µM (active); at Cytochrome P450 1A2 it was 17.8 µM (inconclusive). Further, the AC50 at Cytochrome P450 3A4 was 15.8 µM (inconclusive).

Regarding `O=C(/C=C/c1ccc(Cl)cc1Cl)NCc1ccncc1`, the concentration giving a half-maximal response (EC50) in assay [13] is > 50 µM (active).

On to `CSc1nc2ccc(NC(=O)C3CCCO3)cc2s1` (centres undefined), for which the concentration giving a half-maximal response (EC50) in [1] was > 50 µM (not active).

As for `NC(=O)c1c(NC(=O)CSc2nnc(-c3ccco3)n2-c2ccccc2)sc2c1CCC2`, the concentration for half-maximal inhibition (IC50) in assay [14] is 10.6 µM (active); in assay [15], > 64 µM (inactive).

Consider `CCOC(=O)c1sc(NC(=O)c2cc3ccccc3o2)nc1C`, for which the 50% inhibitory concentration (IC50) in [16] is recorded as > 39.8 µM (not active).

Turning to `CNC(=O)N(O)C1N(C)C(=O)N(CC(=O)OC)C1(C)C` (centres undefined), the IC50 in assay [14] was > 100 µM (not active). The EC50 on Troponin, cardiac muscle was > 71.5 µM (inactive).

For the molecule `CCC(C)C(=O)N[C@@H](c1ccccc1)[C@@H](O)C(=O)O[C@H]1C[C@@]2(O)[C@@H](OC(=O)c3ccccc3)C3[C@](C)(C(=O)[C@H](OC(C)=O)C(=C1C)C2(C)C)[C@@H](O)C[C@H]1OC[C@@]31OC(C)=O` (some centres undefined), the 50% effective concentration (EC50) in [17] is < 0.1 µM (active); in assay [18], 6.26 µM (active); in “cells”, 0.025 µM (active). For the same molecule, the figures for the half-maximal inhibitory concentration (IC50) in assay [8] and in assay [9] were 0.244 µM (active) and > 80 µM (inactive), respectively.
